Entries after “also recorded” stand apart in the source; their conditions may differ.
What was measured:
Format in all cases: physicochemical
[1] = Compatibility test of API and excipients (strong light, high temperature, high humidity, 17 days)
[2] = Solubility in solvents (descriptive)
Excerpt: (§1) The solubility of drugs in the acidic environment of the gastrointestinal tract is a prerequisite for their transmembrane transport and absorption into the human body to exert efficacy. Therefore, the very low solubility of the compound limits its use for development as a drug candidate.

[3] = Equilibrium solubility in media with different pH values (shaking 72 h, 37° C.); conditions: for solubility thermodynamic at 72 h: thermodynamic from solid
[4] = pKa of the compound of formula (I)
Excerpt: as §1

[5] = Log D of the compound of formula (I)
Excerpt: as §1

[6] = Related substances of pilot tablet batches and API (area normalization); conditions: batch after manufacture
Excerpt: The amount of impurities in each batch of samples were relatively stable and no significant change in the amount and type of impurities was observed after the tableting process.

[7] = normal temperatur, 92.5% RH-17 Days

- Related substances (%) COMPOUND I-B ([1]; 0 Day): 0.2869%
- Related substances (%) COMPOUND I-IM1 ([1]; 0 Day): 0.2264%
- Related substances (%) Other maximum impurities ([1]; 0 Day): 0.1001%
- Related substances (%) Total impurities ([1]; 0 Day): 1.4056%
- Related substances (%) COMPOUND I-B ([1]; 25° C., 4500Lx-17 Days): 0.2896%
- Related substances (%) COMPOUND I-IM1 ([1]; 25° C., 4500Lx-17 Days): 0.2338%
- Related substances (%) Other maximum impurities ([1]; 25° C., 4500Lx-17 Days): 0.1135%
- Related substances (%) Total impurities ([1]; 25° C., 4500Lx-17 Days): 1.4901%
- Related substances (%) COMPOUND I-B ([1]; 60° C.-17 Days): 0.2964%
- Related substances (%) COMPOUND I-IM1 ([1]; 60° C.-17 Days): 0.2278%
- Related substances (%) Other maximum impurities ([1]; 60° C.-17 Days): 0.1158%
- Related substances (%) Total impurities ([1]; 60° C.-17 Days): 1.4686%
- Related substances (%) COMPOUND I-B [1, 7]: 0.2836%
- Related substances (%) COMPOUND I-IM1 [1, 7]: 0.2318%
- Related substances (%) Other maximum impurities [1, 7]: 0.1124%
- Related substances (%) Total impurities [1, 7]: 1.4400%
- total impurity fluctuations of related substances ([1]; strong light, high temperature and high humidity, compared with 0 day): less than 0.5%
- solubility ([2]; 0.01 mol/L sodium hydroxide solutions): practically insoluble
- solubility ([2]; N, N-dimethylformamide): soluble
- solubility ([2]; acetonitrile): practically insoluble
- solubility ([2]; dimethyl sulfoxide): soluble
- solubility ([2]; ethyl acetate): practically insoluble
- solubility ([2]; methanol): soluble
- solubility ([2]; tetrahydrofuran): practically insoluble
- solubility ([2]; water): practically insoluble
- solubility thermodynamic at 72 h ([3]; aqueous buffer, pH 6.0, 37° C.): 1.5 µg/mL
- solubility thermodynamic at 72 h ([3]; aqueous buffer, pH 6.8, 37° C.): 217 µg/mL
- solubility thermodynamic at 72 h ([3]; aqueous buffer, pH 7.0, 37° C.): 365 µg/mL
- solubility thermodynamic at 72 h ([3]; aqueous buffer, pH 8.0, 37° C.): 20400 µg/mL
- solubility (in words) ([3]; low pH (pH 1.0-5.0)): almost insoluble
- solubility (in words) ([3]; low pH (pH 1.0-5.0), listed as compound of formula (I)): practically insoluble
- solubility (in words) ([3]; pH 6.8): very slightly soluble
- solubility thermodynamic at 72 h ([3]; water, pH 9.3, water, H2O (The final pH was around 9.3), 37° C.): 22300 µg/mL
- pKa [4]: 3.76
- logD [5]: 5.76
- COMPOUND I-C ([6]; criterion NMT 0.15%): Not detected
- COMPOUND I-IM1 ([6]; criterion NMT 0.15%): 0.12%
- COMPOUND I-IM2 ([6]; criterion NMT 0.15%): 0.12%
- Any individual unspecified impurity ([6]; criterion NMT 0.2%): 0.048%
- COMPOUND I-B ([6]; criterion NMT 0.20%): 0.015%
- Total impurities ([6]; criterion NMT 2.0%): 0.47%
Compound: O=C([O-])c1ccc(Oc2ccc3cc(OCc4c(-c5c(Cl)cccc5Cl)noc4C4CC4)ccc3c2)nc1.[Na+] [COMPOUND I, 6-(6-(((5-cyclopropyl-3-(2,6-dichlorophenyl)isoxazol-4-yl)methoxy)naphthalene-2-yl)oxy) sodium nicotinate]
- solubility (in words) ([3]; pure water): sparingly soluble; also recorded: slightly soluble

Source: patent US20250009726A1, “A PHARMACEUTICAL COMPOSITION OF FXR AGONIST AND ITS PREPARATION METHOD” (GANNEX PHARMA CO., LTD., priority 2021, published 2025)
